Data on 25 compounds can be found in US20220324803A1 (Teon Therapeutics, Inc., priority 2019, published 2022).

The target of the experiment is T1, human Prostanoid EP4 Receptor (EP4) (Homo sapiens, UniProt P35408).
T1 construct: expressed in transfected cells; host or cells: HEK293 (G418 selection); membranes prepared by differential centrifugation
In words: Prostanoid EP4 binding assay (3H-prostaglandin E2 displacement, cell membranes). The settings on record: HEK293 cell membranes with human EP4, 3H-prostaglandin E2, 24° C. As for the experimental part:
HEK293 cells transfected with human Prostanoid EP4 Receptor (EP4) are maintained in DMEM supplemented with L-Glutamine, 10% FBS and 300 μg/ml G418. Cells are harvested and membranes prepared by differential centrifugation, following lysis of the cells in the presence of protease inhibitors, for use in the receptor binding assay. EP4 binding assay is performed in 50 mM HEPES pH7.4, 5 mM MgCl2, 1 mM CaCl2) and 0.2% BSA. Testing compounds are diluted with DMSO to make 8-point 4-fold serial dilution. Cell membrane homogenates are incubated at 24° C. with ^3H-prostaglandin E2 in the absence or presence of the testing compound in assay buffer. Nonspecific binding (Low control: LC) and total binding (High control: HC) are determined in the presence or absence of saturated cold ligand Prostaglandin E2 (PGE2). Specific binding is calculated by subtracting nonspecific binding from total binding. When binding assays are completed, the reaction mixture is filtered rapidly under vacuum through glass fiber filters (GF/C, Packard) presoaked with 0.5% BSA for at least 0.5 hour at room temperature and then washed for 4 times with cold wash buffer (50 mM HEPES pH7.4, 500 mM NaCl, 0.1% BSA) using a 96-sample Perkin Elmer Filtermate Harvester (Unifilter, Packard). The filters are dried for 1 hour at 50 degrees then counted for radioactivity in a scintillation counter using Perkin Elmer Microscint 20 cocktail. ^3H trapped on filter is counted using Perkin Elmer MicroBeta2 Reader. Inhibition is calculated using following equation: % Inhibition=(1−(Assay well−Average_LC)/(Average_HC−Average_LC))×100%. The results are expressed as a percent inhibition of the control radioligand specific binding. Data are analyzed and IC50 is calculated using GraphPad Prism 5 and the model “log(inhibitor) vs. response—Variable slope”. The binding affinity of the compounds is determined by using the Cheng and Prusoff equation Ki=IC50/(1+[radioligand]/Kd).

T1 sequence (P35408 whole entry): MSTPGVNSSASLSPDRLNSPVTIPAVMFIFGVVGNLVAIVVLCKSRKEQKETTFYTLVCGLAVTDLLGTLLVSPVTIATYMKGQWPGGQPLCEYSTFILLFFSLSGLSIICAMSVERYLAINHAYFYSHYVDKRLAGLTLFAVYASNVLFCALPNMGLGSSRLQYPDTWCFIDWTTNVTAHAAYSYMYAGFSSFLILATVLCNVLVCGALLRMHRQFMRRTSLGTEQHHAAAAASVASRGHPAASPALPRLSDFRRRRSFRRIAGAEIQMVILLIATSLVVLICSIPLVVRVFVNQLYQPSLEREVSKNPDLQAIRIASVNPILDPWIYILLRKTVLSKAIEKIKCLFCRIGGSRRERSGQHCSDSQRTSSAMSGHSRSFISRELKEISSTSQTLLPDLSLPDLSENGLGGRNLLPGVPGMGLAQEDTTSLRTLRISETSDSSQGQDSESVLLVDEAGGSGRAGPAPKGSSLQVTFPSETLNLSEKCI

Usually Ki stands for a measure of affinity in units of concentration, obtained from inhibition or displacement. The low end stands for tighter binding, the high end for weaker binding. `CC(C)Cn1nc(C(=O)N[C@@H](C)c2ccc(C(=O)O)cc2)c2c(Cc3ccc(C(F)(F)F)cc3)cccc21` [Compound 23, 4-[(1S)-1-[[1-isobutyl-4-[[4-(trifluoromethyl)phenyl]methyl]indazole-3-carbonyl]amino]ethyl]benzoic acid] registered a Ki of under 100 nM.

Turning to `O=C(N[C@H]1CC[C@@H](C(=O)O)C1)c1cnn2cccc(Cc3ccc(C(F)(F)F)cc3)c12` [Compound 39, (1R,3S)-3-[[4-[[4-(trifluoromethyl)phenyl]methyl]pyrazolo[1,5-a]pyridine-3-carbonyl]amino]cyclopentanecarboxylic acid], the Ki is under 100 nM.

Take `CCn1nc(C(=O)N[C@H]2CC3(C2)C[C@H](C(=O)O)C3)c2c(Cc3ccc(C(F)(F)F)cc3)cccc21` (single isomer, unassigned) [Compound 11B, trans-2-[[1-ethyl-4-[[4-(trifluoromethyl)phenyl]methyl]indazole-3-carbonyl]amino]spiro[3.3]heptane-6-carboxylic acid]: the Ki is under 100 nM.

As for `O=C(N[C@H]1CC2(C1)C[C@H](C(=O)O)C2)c1ncn2cccc(Cc3ccc(C(F)(F)F)cc3)c12` (single isomer, unassigned) [Compound 6A, cis-2-[[8-[[4-(trifluoromethyl)phenyl]methyl]imidazo[1,5-a]pyridine-1-carbonyl]amino]spiro[3.3]heptane-6-carboxylic acid], the inhibition constant (Ki) is over 500 nM.

The compound `O=C(O)CC12CC(NC(=O)c3ncn4cccc(Cc5ccc(C(F)(F)F)cc5)c34)(C1)C2` [Compound 17, 2-[3-[[8-[[4-(trifluoromethyl)phenyl]methyl]imidazo[1,5-a]pyridine-1-carbonyl]amino]-1-bicyclo[1.1.1]pentanyl]acetic acid] showed a Ki of 100 to 499 nM.

For `O=C(NC[C@H]1CC[C@H](C(=O)O)CC1)c1cnn2cccc(Cc3ccc(C(F)(F)F)cc3)c12` [Compound 40, (1r,4r)-4-[[[4-[[4-(trifluoromethyl)phenyl]methyl]pyrazolo[1,5-a]pyridine-3-carbonyl]amino]methyl]cyclohexanecarboxylic acid], the Ki is under 100 nM.

Take `CCn1nc(C(=O)N[C@H]2CC3(C2)C[C@H](C(=O)O)C3)c2c(Cc3ccc(C(F)(F)F)cc3)cccc21` (single isomer, unassigned) [Compound 11A, cis-2-[[1-ethyl-4-[[4-(trifluoromethyl)phenyl]methyl]indazole-3-carbonyl]amino]spiro[3.3]heptane-6-carboxylic acid]: the Ki lay within 100 to 499 nM.

In turn, `O=C(Nc1ccc(C2(C(=O)O)CC2)cc1)c1cnn2cccc(Cc3ccc(C(F)(F)F)cc3)c12` [Compound 31, 1-[4-[[4-[[4-(trifluoromethyl)phenyl]methyl]pyrazolo[1,5-a]pyridine-3-carbonyl]amino]phenyl]cyclopropanecarboxylic acid] registered a Ki of over 500 nM.

In turn, `O=C(NC[C@H]1CC[C@H](C(=O)O)CC1)c1cn(CCF)c2nccc(Cc3ccc(C(F)(F)F)cc3)c12` [Compound 58, (1r,4r)-4-[[[1-(2-fluoroethyl)-4-[[4-(trifluoromethyl)-phenyl]methyl]-pyrrolo[2,3-b]pyridine-3-carbonyl]amino]methyl]cyclohexanecarboxylic acid] had an inhibitory constant (Ki) of under 100 nM.

As for `O=C(N[C@H]1CC[C@@H](C(=O)O)CC1)c1cnn2cccc(Cc3ccc(C(F)(F)F)cc3)c12` [Compound 32, (1s,4s)-4-[[4-[[4-(trifluoromethyl)phenyl]methyl]pyrazolo[1,5-a]pyridine-3-carbonyl]amino]cyclohexanecarboxylic acid], the Ki is over 500 nM.

In turn, `C[C@H](NC(=O)c1ncn2cccc(Cc3ccc(C(F)(F)F)cc3)c12)c1ccc(C(=O)O)cc1` [Compound 5, 4-[(1S)-1-[[8-[[4-(trifluoromethyl)phenyl]methyl]imidazo[1,5-a]pyridine-1-carbonyl]amino]ethyl]benzoic acid] registered a Ki of 100 to 499 nM.

The compound `CC(C)Cn1nc(C(=O)NC23CC(CC(=O)O)(C2)C3)c2c(Cc3ccc(C(F)(F)F)cc3)cccc21` [Compound 25, 2-[3-[[1-isobutyl-4-[[4-(trifluoromethyl)phenyl]methyl]indazole-3-carbonyl]amino]-1-bicyclo[1.1.1]pentanyl]acetic acid] came in with a Ki of under 100 nM.

As to `O=C(O)Cc1ccc(NC(=O)c2cnn3cccc(Cc4ccc(C(F)(F)F)cc4)c23)cc1` [Compound 28, 2-[4-[[4-[[4-(trifluoromethyl)phenyl]methyl]pyrazolo[1,5-a]pyridine-3-carbonyl]amino]phenyl]acetic acid], the Ki fell in the range of 100 to 499 nM.

Regarding `O=C(O)CC1CCC(NC(=O)c2cnn3cccc(Cc4ccc(C(F)(F)F)cc4)c23)C1` (stereo not shown) [Compound 37, 2-[3-[[4-[[4-(trifluoromethyl)phenyl]methyl]pyrazolo[1,5-a]pyridine-3-carbonyl]amino]cyclopentyl]acetic acid], the Ki is under 100 nM.

Compound `O=C(N[C@H]1CC2(C1)C[C@H](C(=O)O)C2)c1ncn2cccc(Cc3ccc(C(F)(F)F)cc3)c12` (single isomer, unassigned) [Compound 6B, trans-2-[[8-[[4-(trifluoromethyl)phenyl]methyl]imidazo[1,5-a]pyridine-1-carbonyl]amino]spiro[3.3]heptane-6-carboxylic acid] registered a Ki of under 100 nM.

Consider `O=C(NCC12CCC(C(=O)O)(CC1)C2)c1cnn2cccc(Cc3ccc(C(F)(F)F)cc3)c12` [Compound 50, 4-[[[4-[[4-(trifluoromethyl)phenyl]methyl]pyrazolo[1,5-a]pyridine-3-carbonyl]amino]methyl]norbornane-1-carboxylic acid], for which the Ki is over 500 nM.

Compound `CC(C)Cn1nc2cccc(Cc3ccc(C(F)(F)F)cc3)c2c1C(=O)N[C@@H](C)c1ccc(C(=O)O)cc1` [Compound 30, 4-[(1S)-1-[[2-isobutyl-4-[[4-(trifluoromethyl)phenyl]methyl]indazole-3-carbonyl]amino]ethyl]benzoic acid] displayed a Ki of 100 to 499 nM.

As to `CC(C)n1nc(C(=O)N[C@H]2CC3(C2)C[C@H](C(=O)O)C3)c2c(Cc3ccc(C(F)(F)F)cc3)cccc21` (stereo partly drawn) [Compound 21, trans-2-[[1-isopropyl-4-[[4-(trifluoromethyl)phenyl]methyl]indazole-3-carbonyl]amino]spiro[3.3]heptane-6-carboxylic acid], the Ki is under 100 nM.

`O=C(O)CC12CC(NC(=O)c3cn(CCF)c4nccc(Cc5ccc(C(F)(F)F)cc5)c34)(C1)C2` [Compound 54, 2-[3-[[1-(2-fluoroethyl)-4-[[4-(trifluoromethyl)phenyl]methyl]-pyrrolo[2,3-b]pyridine-3-carbonyl]amino]-1-bicyclo[1.1.1]pentanyl]acetic acid] gave a Ki of under 100 nM.

Consider `CCn1cc(C(=O)N[C@@H](C)c2ccc(C(=O)O)cc2)c2c(Cc3ccc(C(F)(F)F)cc3)ccnc21` [Compound 46, 4-[(1S)-1-[[1-ethyl-4-[[4-(trifluoromethyl)phenyl]methyl]-pyrrolo[2,3-b]pyridine-3-carbonyl]amino]ethyl]benzoic acid], for which the inhibitory constant (Ki) is under 100 nM.

`O=C(O)c1ccc(C2(NC(=O)c3cnn4cccc(Cc5ccc(C(F)(F)F)cc5)c34)CC2)cc1` [Compound 26, 4-[1-[[4-[[4-(trifluoromethyl)phenyl]methyl]pyrazolo[1,5-a]pyridine-3-carbonyl]amino]cyclopropyl]benzoic acid] came in with a Ki of under 100 nM.

`O=C(O)CC1CCC(NC(=O)c2cnn3cccc(Cc4ccc(C(F)(F)F)cc4)c23)CC1` (stereo not shown) [Compound 34, 2-[4-[[4-[[4-(trifluoromethyl)phenyl]methyl]pyrazolo[1,5-a]pyridine-3-carbonyl]amino]cyclohexyl]acetic acid] returned a Ki of under 100 nM.

On to `O=C(NC12CCC(C(=O)O)(CC1)CC2)c1cnn2cccc(Cc3ccc(C(F)(F)F)cc3)c12` [Compound 36, 4-[[4-[[4-(trifluoromethyl)phenyl]methyl]pyrazolo[1,5-a]pyridine-3-carbonyl]amino]bicyclo[2.2.2]octane-1-carboxylic acid], for which the Ki is 100 to 499 nM.

Regarding `O=C(N[C@H]1CC[C@H](C(=O)O)CC1)c1cnn2cccc(Cc3ccc(C(F)(F)F)cc3)c12` [Compound 33, (1r,4r)-4-[[4-[[4-(trifluoromethyl)phenyl]methyl]pyrazolo[1,5-a]pyridine-3-carbonyl]amino]cyclohexanecarboxylic acid], the Ki fell in the range of 100 to 499 nM.

As for `CCn1cc(C(=O)N[C@H]2CC[C@H](CC(=O)O)CC2)c2c(Cc3ccc(C(F)(F)F)cc3)cccc21` [Compound 56, 2-[(1r,4r)-4-[[1-ethyl-4-[[4-(trifluoromethyl)phenyl]methyl]indole-3-carbonyl]amino]cyclohexyl]acetic acid], the Ki is under 100 nM.
